Data published in US20240317714A1, “3-[(1H-PYRAZOL-R-YL)OXY]PYRAZIN-2-AMINE COMPOUNDS AS HPK1 INHIBITOR AND USE THEREOF” (BeiGene, Ltd., priority 2020, published 2024).

Experiments:
[1] = biological target: HPK1 kinase (aal-346. Life Technologies) (Homo sapiens (Human), UniProt Q92918); assay: HPK Kinase Activity Assay at 1 mM ATP (TR-FRET); format: biochemical; conditions: HPK1 kinase 40 nM, 0.5 μM STK1 substrate, read-out: Enzymatic activity IC50
[2] = test system: pSLP76(S376) level in Jurkat cell line; assay: Cellular pSLP76(S376) HTRF Assay; format: cell-based; conditions: Homo sapiens, Jurkat, Jurkat cells, 2 h compound treatment, stimulated with 0.05 μg/mL anti-human CD3 (OKT3) for 30 min

Chain of HPK1 kinase (aal-346. Life Technologies) (Q92918 1-346): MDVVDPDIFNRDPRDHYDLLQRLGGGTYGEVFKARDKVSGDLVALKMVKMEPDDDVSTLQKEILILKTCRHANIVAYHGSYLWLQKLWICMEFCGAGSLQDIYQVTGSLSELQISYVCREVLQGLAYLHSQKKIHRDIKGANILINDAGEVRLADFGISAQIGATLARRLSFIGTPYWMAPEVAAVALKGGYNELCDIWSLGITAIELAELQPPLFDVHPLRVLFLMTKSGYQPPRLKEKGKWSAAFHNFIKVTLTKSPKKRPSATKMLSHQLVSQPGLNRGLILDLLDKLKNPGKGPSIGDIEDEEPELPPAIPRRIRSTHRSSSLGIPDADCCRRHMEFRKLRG

IC50 [1] [nM]	IC50 [2] [nM]	SMILES
37	125	COCc1cc(-c2cnc(N)c(Oc3cnn(C4CCN(C)CC4)c3)n2)cc(C2(O)COC2)c1 [Example A82, 3-(3-(5-amino-6-((1-(1-methylpiperidin-4-yl)-1H-pyrazol-4-yl)oxy)pyrazin-2-yl)-5-(methoxymethyl)phenyl)oxetan-3-ol]
17	105	Cc1cc(-c2cnc(N)c(Oc3cnn(C4CCN(C)CC4)c3)n2)cc(C2(O)CCOC2)c1N1CC2(COC2)C1 (stereo not shown) [Example A83, 3-(5-(5-amino-6-((1-(1-methylpiperidin-4-yl)-1H-pyrazol-4-yl)oxy)pyrazin-2-yl)-3-methyl-2-(2-oxa-6-azaspiro[3.3]heptan-6-yl)phenyl)tetrahydrofuran-3-ol]
3.7	28	CN1CCC(n2cc(Oc3nc(-c4cc(N5CCC[C@H]5CO)cc(C5(O)COC5)c4)cnc3N)cn2)CC1 [Example A85, (S)-3-(3-(5-amino-6-((1-(1-methylpiperidin-4-yl)-1H-pyrazol-4-yl)oxy)pyrazin-2-yl)-5-(2-(hydroxymethyl)pyrrolidin-1-yl)phenyl)oxetan-3-ol]
56	89	Cc1cc(-c2cnc(N)c(Oc3cnn(C4CCN(C)CC4)c3)n2)cc(C2(O)COC2)c1C1OCCO1 [Example A87, 3-(5-(5-amino-6-((1-(1-methylpiperidin-4-yl)-1H-pyrazol-4-yl)oxy)pyrazin-2-yl)-2-(1,3-dioxolan-2-yl)-3-methylphenyl)oxetan-3-ol]
11	64	C[C@@H]1COCCN1c1cc(-c2cnc(N)c(Oc3cnn(C4CCN(C)CC4)c3)n2)cc(C2(O)CCCOC2)c1 (stereo partly drawn) [Example A89, 3-(3-(5-amino-6-((1-(1-methylpiperidin-4-yl)-1H-pyrazol-4-yl)oxy)pyrazin-2-yl)-5-((R)-3-methylmorpholino)phenyl)tetrahydro-2H-pyran-3-ol]
11	199	CN1CCC(n2cc(Oc3nc(-c4cc(N5CCCC5=O)cc(C5(O)COC5)c4)cnc3N)cn2)CC1 [Example A91, 1-(3-(5-amino-6-((1-(1-methylpiperidin-4-yl)-1H-pyrazol-4-yl)oxy)pyrazin-2-yl)-5-(3-hydroxyoxetan-3-yl)phenyl)pyrrolidin-2-one]
7	156	Cc1cc(-c2cnc(N)c(Oc3cnn(C4CCN(C)CC4)c3)n2)cc(C2(O)CCOC2)c1N1CC2(CCOCC2)C1 (stereo not shown) [Example A92, 3-(5-(5-amino-6-((1-(1-methylpiperidin-4-yl)-1H-pyrazol-4-yl)oxy)pyrazin-2-yl)-3-methyl-2-(7-oxa-2-azaspiro[3.5]nonan-2-yl)phenyl)tetrahydrofuran-3-ol]
15	119	CC1OCCC1(O)c1cc(-c2cnc(N)c(Oc3cnn(C4CCN(C)CC4)c3)n2)cc(N2CCOC[C@H]2C)c1 (stereo partly drawn) [Example A94, 3-(3-(5-amino-6-((1-(1-methylpiperidin-4-yl)-1H-pyrazol-4-yl)oxy)pyrazin-2-yl)-5-((R)-3-methylmorpholino)phenyl)-2-methyltetrahydrofuran-3-ol]
30	154	Cc1cc(-c2cnc(N)c(Oc3cnn(C4CCN(C)CC4)c3)n2)cc([C@]2(O)CCOC2)c1N1CCOCC1 [Example A97B, (R)-3-(5-(5-amino-6-((1-(1-methylpiperidin-4-yl)-1H-pyrazol-4-yl)oxy)pyrazin-2-yl)-3-methyl-2-morpholinophenyl)tetrahydrofuran-3-ol]
9.2	73	CN1CCC(n2cc(Oc3nc(-c4cc(N5CCCOCC5)cc(C5(O)CCOC5)c4)cnc3N)cn2)CC1 (stereo not shown) [Example A98, 3-(3-(5-amino-6-((1-(1-methylpiperidin-4-yl)-1H-pyrazol-4-yl)oxy)pyrazin-2-yl)-5-(1,4-oxazepan-4-yl)phenyl)tetrahydrofuran-3-ol]
11	229	C[C@@H]1COCCN1c1cc(-c2cnc(N)c(Oc3cnn(C4CCN(C)CC4)c3)n2)cc(C(C)(C)O)n1 [Example B3, (R)-2-(4-(5-amino-6-((1-(1-methylpiperidin-4-yl)-1H-pyrazol-4-yl)oxy)pyrazin-2-yl)-6-(3-methylmorpholino)pyridin-2-yl)propan-2-ol]
31	102	C[C@@H]1COCCN1c1cc(-c2cnc(N)c(Oc3cnn(C4CCN(C)CC4)c3)n2)cc(C2(O)COC2)n1 [Example B4, (R)-3-(4-(5-amino-6-(1-(1-methylpiperidin-4-yl)-1H-pyrazol-4-yloxy)pyrazin-2-yl)-6-(3-methylmorpholino)pyridin-2-yl)oxetan-3-ol]

The remaining lines, values behind:

SMILES	IC50 [1] [nM]	IC50 [2] [nM]
Cc1cc(-c2cnc(N)c(Oc3cnn(C4CCN(C)CC4)c3)n2)cc(C2(O)COC2)c1Cl [Example A84, 3-(5-(5-amino-6-((1-(1-methylpiperidin-4-yl)-1H-pyrazol-4-yl)oxy)pyrazin-2-yl)-2-chloro-3-methylphenyl)oxetan-3-ol]	58	83
Cc1cc(-c2cnc(N)c(Oc3cnn(C4CCN(C)CC4)c3)n2)cc(C2(O)COC2)c1C1=CCOCC1 [Example A86, 3-(5-(5-amino-6-((1-(1-methylpiperidin-4-yl)-1H-pyrazol-4-yl)oxy)pyrazin-2-yl)-2-(3,6-dihydro-2H-pyran-4-yl)-3-methylphenyl)oxetan-3-ol]	40	130
Cc1cc(-c2cnc(N)c(Oc3cnn(C4CCN(C)CC4)c3)n2)cc(C2(O)CCCOC2)c1 (stereo not shown) [Example A88, 3-(3-(5-amino-6-((1-(1-methylpiperidin-4-yl)-1H-pyrazol-4-yl)oxy)pyrazin-2-yl)-5-methylphenyl)tetrahydro-2H-pyran-3-ol]	34	85
Cc1cc(-c2cnc(N)c(Oc3cnn(C4CCN(C)CC4)c3)n2)cc(C2(O)CCOC2)c1F (stereo not shown) [Example A93, 3-(5-(5-amino-6-((1-(1-methylpiperidin-4-yl)-1H-pyrazol-4-yl)oxy)pyrazin-2-yl)-2-fluoro-3-methylphenyl)tetrahydrofuran-3-ol]	37	164
Cc1cc(-c2cnc(N)c(Oc3cnn(C4CCN(C)CC4)c3)n2)cc(C2(O)CCOC2)c1N1CCOCC1 (stereo not shown) [Example A96, 3-(5-(5-amino-6-((1-(1-methylpiperidin-4-yl)-1H-pyrazol-4-yl)oxy)pyrazin-2-yl)-3-methyl-2-morpholinophenyl)tetrahydrofuran-3-ol]	36	117
Cc1cc(-c2cnc(N)c(Oc3cnn(C4CCN(C)CC4)c3)n2)cc([C@@]2(O)CCOC2)c1N1CCOCC1 [Example A97A, (S)-3-(5-(5-amino-6-((1-(1-methylpiperidin-4-yl)-1H-pyrazol-4-yl)oxy)pyrazin-2-yl)-3-methyl-2-morpholinophenyl)tetrahydrofuran-3-ol]	18	78
CCN(CC)c1cc(-c2cnc(N)c(Oc3cnn(C4CCN(C)CC4)c3)n2)cc(CNC)n1 [Example B1, 5-(2-(diethylamino)-6-((methylamino)methyl)pyridin-4-yl)-3-((1-(1-methylpiperidin-4-yl)-1H-pyrazol-4-yl)oxy)pyrazin-2-amine]	26	181
CNCc1cc(-c2cnc(N)c(Oc3cnn(C4CCN(C)CC4)c3)n2)cc(N2CCC[C@H]2C)n1 [Example B2, (R)-5-(2-((methylamino)methyl)-6-(2-methylpyrrolidin-1-yl)pyridin-4-yl)-3-((1-(1-methylpiperidin-4-yl)-1H-pyrazol-4-yl)oxy)pyrazin-2-amine]	12	121
